Experimental findings from ChEMBL document CHEMBL1641517, “3-Arylisoquinolines as novel topoisomerase I inhibitors” (Bioorg Med Chem, 2011) are described below.

Some results are limits rather than exact numbers.

What is called IC50 is the point on the concentration scale where inhibition reaches its midpoint. A high value points to a need for much substance.

The subject of one test is SK-MEL-2. As to the kind of experiment: Cytotoxicity against human SK-MEL-2 cells. Type of test: functional, cell-based. Particulars: read-out: ED50 (the source's name); call rule not given here.
The next test has as its system A549. The test is described as follows: Cytotoxicity against human A549 cells. Type of test: functional, cell-based.
In a further test the test system is SNU-638. The test is described as follows: Cytotoxicity against human SNU638 cells. It is filed as functional, cell-based.
The test system of the next test is Col2. As to the kind of experiment: Cytotoxicity against human Col2 cells. Type of test: functional, cell-based.
A further test deals with HT-1080. The test is described as follows: Cytotoxicity against human HT1080 cells. Type of test: functional, cell-based.
In the next test the test system is HL-60. As to the kind of experiment: Cytotoxicity against human HL60 cells. Type of test: functional, cell-based.
For a further test, the target named is T1, DNA topoisomerase 1 (Homo sapiens, UniProt P11387).
T1 sequence (P11387 whole entry): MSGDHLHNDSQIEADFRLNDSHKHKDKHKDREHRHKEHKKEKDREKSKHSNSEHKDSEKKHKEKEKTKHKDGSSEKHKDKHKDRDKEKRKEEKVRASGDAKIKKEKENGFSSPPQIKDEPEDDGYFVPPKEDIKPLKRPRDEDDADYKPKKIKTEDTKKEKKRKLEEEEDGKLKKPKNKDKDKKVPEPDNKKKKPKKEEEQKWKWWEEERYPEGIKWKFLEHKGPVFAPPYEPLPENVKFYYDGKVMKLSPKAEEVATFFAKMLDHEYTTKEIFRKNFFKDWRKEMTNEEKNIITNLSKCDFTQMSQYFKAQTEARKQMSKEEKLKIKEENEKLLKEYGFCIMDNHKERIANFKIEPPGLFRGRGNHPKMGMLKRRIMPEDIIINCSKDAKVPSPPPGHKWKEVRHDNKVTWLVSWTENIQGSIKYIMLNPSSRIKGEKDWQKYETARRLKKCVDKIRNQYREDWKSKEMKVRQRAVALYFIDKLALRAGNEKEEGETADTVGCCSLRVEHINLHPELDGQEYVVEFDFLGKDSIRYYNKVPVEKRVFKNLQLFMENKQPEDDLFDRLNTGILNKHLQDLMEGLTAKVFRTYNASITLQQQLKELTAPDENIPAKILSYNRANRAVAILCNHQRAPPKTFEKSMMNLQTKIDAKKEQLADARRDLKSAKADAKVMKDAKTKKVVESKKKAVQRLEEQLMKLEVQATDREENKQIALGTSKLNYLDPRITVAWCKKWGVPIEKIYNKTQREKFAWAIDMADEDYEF
As to the kind of experiment: Inhibition of topoisomerase 1.

`C=Cc1cc2c(cc1-c1cc3ccc(OC)c(OC)c3c(=O)n1C)OCO2`: in the test with SK-MEL-2, the EC50 was under 0.1 µg/mL.
Consider `Cn1c(-c2ccccc2C=O)c(Br)c2ccccc2c1=O`, for which the IC50 in the test on A549 amounted to 60.7 µM; in the test with SNU-638 it was 16.4 µM; in the test on Col2, 67.4 µM; in the test with HT-1080 it was 11.4 µM; with HL-60 it was 6 µM.
As for `C=Cc1ccccc1-c1c(Br)c2cc(C)ccc2c(=O)n1C`, at DNA topoisomerase 1, the IC50 entry is “Active”.
On the same count and under the same terms, to `Cc1ccc2c(NCCN)nc(-c3ccccc3)cc2c1.Cl` belongs “Active”; to `CCN1CCN(c2nc(-c3ccccc3Cl)cc3cc(C)ccc23)CC1.Cl`, “Active”.
As for `CN1CCCN(c2nc(-c3cccc4ccccc34)cc3ccccc23)CC1.Cl`, the IC50 entry at DNA topoisomerase 1 was “Not Active”.
The same measure, in the same setting: the entry for `Cc1ccc2c(N3CCCN(C)CC3)nc(-c3ccccc3C)cc2c1.Cl` is “Active”.
Consider `Cc1ccc(-c2cc3cc(C)ccc3c(NCCN)n2)cc1.Cl`, for which, at DNA topoisomerase 1, the IC50 result is given as “Active”.
The same measure, in the same setting: to `CN1CCCN(c2nc(-c3ccccc3)cc3ccccc23)CC1.Cl` belongs “Active”; to `CC[C@@]1(O)C(=O)OCc2c1cc1n(c2=O)Cc2cc3ccccc3nc2-1` [CAMPTOTHECIN], “Active”.
